Data taken from patent US20210051949A1, “SOLID AGROCHEMICAL COMPOSITIONS” (UPL LTD, priority 2018, published 2021).

Experiments:
[1] = Physical parameters (active content, suspensibility, dispersibility, moisture, wet sieve) of a composition of 2,4-D acid, metsulfuron methyl and picloram acid; type: physicochemical; design: unit not given here
Description: Physical Parameters of a Composition Comprising 2, 4-D Acid, Metsulfuron Methyl and Picloram Acid:
Physical parameters such as suspensibility, dispersibility has been tested for a composition prepared according to the present invention are listed in the below table (Table 2).
As evident from the Table 2, the physical parameters such as suspensibility and dispersibility of the compositions prepared according to the present invention satisfies the requirement for a stable formulation.

[2] = Comparative study of degradation of metsulfuron methyl in compositions with 2,4-D acid or 2,4-D sodium salt plus picloram (accelerated heat stability); type: physicochemical; conditions: for Active content: picloram, metsulfuron methyl
Experimental: Degradation of Metsulfuron Methyl in Compositions with 2,4-D Acid and 2,4-D Sodium Salt: Comparative Study
A comparative study of degradation of metsulfuron methyl in composition of 2,4-D acid and 2,4-D sodium salt in combination with picloram was carried out. The results are summarized in the below table (Table 1):
The study was conducted at 0 days as well as after 14 days at 54° C. (accelerated heat stability conditions).

[3] = composition with 2,4-D acid, 0 days
[4] = composition with 2,4-D acid, 14 days at 54° C.
[5] = composition with 2,4-sodium salt, 0 days
[6] = composition with 2,4-sodium salt, 14 days at 54° C.

O=C(O)COc1ccc(Cl)cc1Cl [2,4-D acid, 2,4-dichlorophenoxy acetic acid]
Active ingredient (content) ([1]; 14 Day AHS): 319.6 | Suspensibility ([1]; 14 Day AHS): 99.10 | Active ingredient (content) ([1]; Ambient): 320.5 | Suspensibility ([1]; Ambient): 99.96 | Active content [2, 3]: 333.03 gm | Active content [2, 4]: 325.01 gm | % degradation after 14 days [2, 4]: 2.41% | Active content [2, 5]: 325.28 gm | Active content [2, 6]: 328.01 gm | % degradation after 14 days [2, 6]: 0.84%

COC(=O)c1ccccc1S(=O)(=O)NC(=O)Nc1nc(C)nc(OC)n1 [Metsulfuron methyl]
Active ingredient (content) ([1]; 14 Day AHS): 39.30 | Suspensibility ([1]; 14 Day AHS): 99.75 | Active ingredient (content) ([1]; Ambient): 42.3 | Suspensibility ([1]; Ambient): 100.90 | Active content [2, 3]: 46.06 gm | Active content [2, 4]: 44.42 gm | Active content [2, 5]: 49.78 gm | Active content [2, 6]: 43.88 gm

Nc1c(Cl)c(Cl)nc(C(=O)O)c1Cl [Picloram acid, Picloram]
Active ingredient (content) ([1]; 14 Day AHS): 105.5 | Suspensibility ([1]; 14 Day AHS): 99.61 | Active ingredient (content) ([1]; Ambient): 106.5 | Suspensibility ([1]; Ambient): 100.50 | Active content [2, 3]: 98.96 gm | Active content [2, 4]: 98.05 gm | % degradation after 14 days [2, 4]: 0.92% | Active content [2, 5]: 95.65 gm | Active content [2, 6]: 95.59 gm | % degradation after 14 days [2, 6]: 0.06%
